# From ChEMBL document CHEMBL2086306, “Manadosterols A and B, sulfonated sterol dimers inhibiting the Ubc13-Uev1A interaction, isolated from the marine sponge Lissodendryx fibrosa” (J Nat Prod, 2012)
# What was measured:
# [1] = molecular target: Ubiquitin-conjugating enzyme E2 N/Ubiquitin-conjugating enzyme E2 variant 1 (Homo sapiens) (UniProt Q13404+P61088); experiment: Ratio of leucettamol A IC50 to compound IC50 for recombinant human Ubc13-Uev1A interaction expressed in Escherichia BL21
# [2] = molecular target: Ubiquitin-conjugating enzyme E2 N/Ubiquitin-conjugating enzyme E2 variant 1 (Homo sapiens, UniProt P61088+Q13404); experiment: Inhibition of recombinant human Ubc13-Uev1A interaction expressed in Escherichia BL21 after 1.5 hrs by ELISA
Structure (SMILES),Ratio IC50 [1],IC50 [2] [nM]
CC1=CC(C)(C)[C@@H](/C=C\[C@@H](C)[C@H]2CC[C@H]3[C@@H]4C[C@H](OS(=O)(=O)O)[C@H]5C[C@H](O)[C@@H](OS(=O)(=O)O)C[C@]5(C)[C@H]4CC[C@]23C)[C@H]1CC[C@@H](C)[C@H]1CC[C@H]2[C@@H]3C[C@H](OS(=O)(=O)O)[C@H]4C[C@H](OS(=O)(=O)O)[C@@H](OS(=O)(=O)O)C[C@]4(C)[C@H]3CC[C@]12C [MANADOSTEROL A],1000,90
C=C1CC(C)(C)[C@@H](/C=C/[C@@H](C)[C@H]2CC[C@H]3[C@@H]4C[C@H](OS(=O)(=O)O)[C@H]5C[C@@H](O)CC[C@]5(C)[C@H]4CC[C@]23C)[C@H]1CC(O)[C@@H](C)[C@H]1CC[C@H]2[C@@H]3C[C@H](OS(=O)(=O)O)[C@H]4C[C@H](OS(=O)(=O)O)[C@@H](OS(=O)(=O)O)C[C@]4(C)[C@H]3CC[C@]12C (stereo partly drawn) [MANADOSTEROL B],–,130
